According to patent US20030212100A1, “Quinoline derivatives and medicinal use thereof” (priority 2000, published 2003):
Counter-ions that a name gives are not always drawn.

Key:
human PPARγ receptor = target: T1, human PPARγ receptor (Homo sapiens, UniProt P37231); assay: Luciferase reporter assay of PPARγ agonist activity (Gal4-PPARγ chimera receptor in CV-1 cells); format: cell-based; conditions: luciferase activity with 1 μM Pioglitazone taken as 100, read-out: PPAR γ agonist activity, relative activity; for Emax at 0.1 µM: CV-1, 0.1 μM compound; for Emax at 1 µM: CV-1, 1 μM compound; for Emax at 10 µM: CV-1, 10 μM compound
T1 construct: corresponding to Ser204-Tyr506 for human PPARγ1 receptor and human PPARγ2; expressed in transfected cells; host or cells: CV-1 cells (pSG5-based expression vector)
T1 sequence (P37231 204-505 limits assumed): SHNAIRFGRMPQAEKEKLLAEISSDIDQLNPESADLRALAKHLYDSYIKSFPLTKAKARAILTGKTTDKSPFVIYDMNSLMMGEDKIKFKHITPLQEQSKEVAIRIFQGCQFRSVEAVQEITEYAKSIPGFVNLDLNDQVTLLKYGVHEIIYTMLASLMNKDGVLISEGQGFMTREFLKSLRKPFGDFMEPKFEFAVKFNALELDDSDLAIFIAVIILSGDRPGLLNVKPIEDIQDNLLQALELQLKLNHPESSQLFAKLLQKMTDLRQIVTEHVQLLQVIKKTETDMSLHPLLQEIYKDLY
Description: (§1) Measurement of PPARα Agonist Activity and PPARγ Agonist Activity
(§2) 1. Materials for Assay of Luciferase Using Human PPARα and PPARγ Receptors
(§3) The entire procedure was carried out according to the fundamental methods of genetic engineering and the ordinary method in the yeast one-hybrid or two-hybrid system was applied.
(§4) PGL2-UAS5-TK-luc was prepared as a reporter plasmid carrying a response sequence of Gal4 protein as a basic transcription factor of yeast, an enhancer sequence with five repeat part of UAS, a luciferase gene (luc) under the control of timidine kinase (TK) promoter. Specifically, a DNA fragment encoding a TK promoter (−105/+51) on the downstream side of an enhancer sequence comprising two time repeat of UAS was amplified by PCR using pRL-TK carrying a TK promoter (Promega, Trade name: Catalogue No. E2241) as the template and the primers: […]
(§5) After the fragment was cleaved with XhoI-Hind III, pGL2-UAS2-TK-luc was obtained by inserting the resultant fragment into the XhoI-Hind III site located on the upstream side of a luciferase structural gene on pGL2-Basic vector (Promega, Trade name: Catalogue No. E1641).
(§6) After cleavage of a synthetic DNA as an enhancer sequence comprising three time repeat of Gal4 response sequence (SEQ ID NO: 3): 5′-ATTGGTAC([…])×3 AGATCTCGAC) using KpnI and BgIII was carried out, pGL2-UAS5-TK-luc was prepared by inserting the resulting fragment into the KpnI-BgIIIb site of pGL2-UAS2-TK-luc.
(§7) A vector for expression of a chimera receptor protein, in which a ligand binding region of an internuclear receptor human PPARα or PPARγ receptor was fused with the carboxyl terminal of a DNA binding region of yeast Ga14 protein, was prepared as follows:
(§8) The structural gene of pSG5 (STRATAGENE, Trade Name: Catalogue No. 216201) as the basic expression vector was changed for the chimera receptor except that the promoter-enhancer region was maintained as it was.
(§9) The DNA encoding the ligand binding region of the human PPARα or PPARγ receptor was fused on the downstream side of the DNA encoding the DNA binding region and the amino acid sequence from 1 to 147 positions of Ga14 protein so that their reading frames were fitted and the resulting fused DNA was inserted into pSG5 (trade name) on the down stream side of the promoter-enhancer region. In this step, the DNA sequence was arranged so that a signal for transfer into the nucleus (Ala Pro Lys Lys Lys Arg Lys Val Gly (SEQ ID: No: 4) derived from SV-40T antigen was located on the amino terminal of the ligand binding region of PPARα or PPARγ receptor in order to localize the chimera receptor in the nucleus.
(§10) Based on comparison of the human PPAR receptors described in R. Mukherjee et al., [see J. Steroid Biochem. Molec. Biol., Vol. 51, p157 (1994)] and M. E. Green et al., [see Gene Expression, Vol. 4, p281 (1995))], as the structural gene part used for the ligand binding region PPARα or PPARγ, the human PPARα ligand binding region: Ser167-Tyr468; and the PPARγ ligand binding region: Ser176-Tyr478 were used, which had the same sequences corresponding to Ser204-Tyr506 for human PPARγ1 receptor and human PPARγ2, respectively.
(§11) In order to monitor influence against the basic transcription, an expression vector was prepared which carried a DNA encoding only the DNA binding region and the amino acid sequence from 1 to 147 position of Ga14 protein defective in its PPAR ligand binding region and a signal for transfer into the nucleus of SV-40T-antigen.
(§12) 2. Assay of Luciferase Using Human PPARα or PPARγ Receptor
(§13) CV-1 cells used as a host cell were cultivated according to an ordinary method. Specifically, a fetal bovine serum (Intergent, Catalogue No. 1020-90) was added to a Dulbecco's modified Eagle's medium (DMEM) so that the final concentration became 10%. Further, penicillin G (50 U/ml) and streptomycin sulfate (50 μg/ml) were added. Cultivation was conducted in the resulting medium in a 5% carbon dioxide gas at 37° C. […]

human PPARα receptor = target: T2, human PPARα receptor (Homo sapiens, UniProt Q07869); assay: Luciferase reporter assay of PPARα agonist activity (Gal4-PPARα chimera receptor in CV-1 cells); format: cell-based; conditions: luciferase activity with 10 μM Wy-14,643 taken as 100, read-out: PPARα agonist activity, relative activity; for Emax at 0.1 µM: CV-1, 0.1 μM compound; for Emax at 1 µM: CV-1, 1 μM compound; for Emax at 10 µM: CV-1, 10 μM compound
T2 construct: expressed in transfected cells; host or cells: CV-1 cells (pSG5-based expression vector)
T2 sequence (Q07869 167-468): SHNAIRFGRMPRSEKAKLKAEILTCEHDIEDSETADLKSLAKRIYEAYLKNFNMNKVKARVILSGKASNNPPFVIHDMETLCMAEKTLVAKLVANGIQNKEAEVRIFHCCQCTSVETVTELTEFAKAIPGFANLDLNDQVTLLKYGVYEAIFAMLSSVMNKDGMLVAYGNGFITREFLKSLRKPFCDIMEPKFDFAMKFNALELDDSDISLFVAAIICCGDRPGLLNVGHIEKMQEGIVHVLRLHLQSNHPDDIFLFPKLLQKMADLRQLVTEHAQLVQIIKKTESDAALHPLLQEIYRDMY
Description: as §1, §2, §3, §4, §5, §6, §7, §8, §9, §10, §11, §12, §13

Structure (SMILES) | Emax at 0.1 µM (human PPARγ receptor) | Emax at 1 µM (human PPARγ receptor) | Emax at 10 µM (human PPARγ receptor) | Emax at 0.1 µM (human PPARα receptor) | Emax at 1 µM (human PPARα receptor) | Emax at 10 µM (human PPARα receptor)
COC(=O)C(Cc1ccc(OCc2cnc3ccc(OC)cc3c2OC(C)C)cc1)C(=O)OC [Example 22 (120), dimethyl{[4-(4-isopropoxy-6-methoxyquinoline-3-yl)methyloxy]phenyl}methylmalonate hydrochloride] | 3.5% | 62.3% | 108% |  |  | 
CCOC(Cc1ccc(OCc2cccc3cccnc23)cc1)C(=O)O (stereo not drawn) [Example 16 (32), 2-ethoxy-3-{[4-(quinoline-8-yl)methyloxy]phenyl}propanoic acid] | 1.6% | 71.8% | 127% | 0.3% | 0.4% | 45.2%
CCOC(=O)C(Cc1cccc(OCc2cnc3ccc(OC)cc3c2OC(C)C)c1)C(=O)OCC [Example 27 (128), diethyl{[3-(4-isopropoxy-6-methoxyquinoline-3-yl)methyloxy]phenyl}methylmalonate hydrochloride] | 1.2% | 2.1% | 42.5% |  |  | 
CCOC(Cc1ccc(OCc2cnc3c(C(F)(F)F)cccc3c2OC(C)C)cc1)C(=O)O (stereo not drawn) [Example 14 (86), 2-ethoxy-3-{[4-(4-isopropoxy-8-trifluoromethylquinoline-3-yl)methyloxy]phenyl}propanoic acid] | 19.6% | 76% | 132% | 0.3% | 0.3% | 2.1%
COc1ccc2ncc(COc3ccc(CC(Sc4ccccc4)C(=O)O)cc3)c(OC(C)C)c2c1 (stereo not drawn) [Example 19 (108), 3-{[4-(4-isopropoxy-6-methoxyquinoline-3-yl)methyloxy]phenyl}-2-phenylthiopropanoic acid] | 25.2% | 83.5% | 97.9% | 0.3% | 0.3% | 0.6%
CCOC(=O)C(Cc1ccc(OC)c(OCc2cnc3ccc(OC)cc3c2OC(C)C)c1)C(=O)OCC [Example 28 (129), diethyl{[3-(4-isopropoxy-6-methoxyquinoline-3-yl)methyloxy]-4-methoxyphenyl}methylmalonate hydrochloride] | 1.3% | 2.1% | 14.7% |  |  | 
CNC(=O)/C(=C/c1ccc(OCc2cnc3ccc(OC)cc3c2OC(C)C)cc1)C(C)=O [Example 25 (144), 2-{[4-(4-isopropoxy-6-methoxyquinoline-3-yl)methyloxy]phenylmethylene}-3-oxobutanoic acid N-methylamide hydrochloride] | 0.7% | 1.9% | 6.2% |  |  | 
CCOC(Cc1ccc(OC)c(OCc2cnc3ccc(OC)cc3c2OC(C)C)c1)C(=O)O (stereo not drawn) [Example 21 (118), 2-ethoxy-3-{[3-(4-isopropoxy-6-methoxyquinoline-3-yl)methyloxy]-4-methoxyphenyl}propanoic acid] | 1.4% | 1.9% | 22.4% |  |  | 
CCOC(Cc1ccc(OCc2cnc3ccc(CC)cc3c2OC(C)C)cc1)C(=O)O (stereo not drawn) [Example 6 (67), 2-ethoxy-3-{[4-(4-isopropoxy-6-ethylquinoline-3-yl)methyloxy]phenyl}propanoic acid] | 122% | 140% | 125% | 5.7% | 47.1% | 74%
CCOC(=O)C(Cc1ccc(OCc2cnc3ccc(OC)cc3c2OC(C)C)cc1)OCC (stereo not drawn) [Example 1 (101), ethyl 2-ethoxy-3-{[4-(4-isopropoxy-6-methoxyquinoline-3-yl)methyloxy]phenyl}propanoate] | 98.6% | 127% | 102% | 0.2% | 0.9% | 28.7%
CCCCCCCCOc1c(COc2ccc(CC(OCC)C(=O)O)cc2)cnc2ccc(OC)cc12 (stereo not drawn) [Example 7 (63), 2-ethoxy-3-{[4-(4-octyloxy-6-methoxyquinoline-3-yl)methyloxy]phenyl}propanoic acid] | 13.5% | 63.3% | 114% | 0.4% | 4.5% | 64.4%
CCOC(Cc1ccc(OCc2cnc3c(Cl)cccc3c2OC(C)C)cc1)C(=O)O (stereo not drawn) [Example 13 (76), 3-{[4-(8-chloro-4-isopropoxyquinoline-3-yl)methyloxy]phenyl}-2-ethoxypropanoic acid] | 104% | 140% | 130% | 0.3% | 0.9% | 41.1%
CCOC(Cc1ccc(OCc2cnc3cc(C(F)(F)F)ccc3c2OC(C)C)cc1)C(=O)O (stereo not drawn) [Example 12 (85), 2-ethoxy-3-{[4-(4-isopropoxy-7-trifluoromethylquinoline-3-yl)methyloxy]phenyl}propanoic acid] | 1.2% | 60.4% | 111% | 0.2% | 0.3% | 6.4%
CCOC(Cc1cccc(OCc2cnc3ccc(OC)cc3c2OC(C)C)c1)C(=O)O (stereo not drawn) [Example 20 (114), 2-ethoxy-3-{[3-(4-isopropoxy-6-methoxyquinoline-3-yl)methyloxy]phenyl}propanoic acid] | 9.3% | 91% | 110% |  |  | 
CCC(=O)C(Cc1ccc(OCc2cnc3ccc(OC)cc3c2OC(C)C)cc1)C(=O)OC (stereo not drawn) [Example 23 (137), methyl 2-{[4-(4-isopropoxy-6-methoxyquinoline-3-yl)methyloxy]phenylmethyl}-3-oxopentanoate hydrochloride] | 2.8% | 30.5% | 63.1% |  |  | 
